Laboratory results reported in ChEMBL document CHEMBL3045208, “Synthesis and Inhibitory Effect on Photosynthetic Electron Transport of 1,3,5-Triazinylcarboxylic Acid Derivatives” (J Pestic Sci, 2005).

Assays:
[1] = Inhibition of photosynthetic electron transport protein complex in Spinacia oleracea (spinach) leaf thylakoid
[2] = biological target: Chloroplast thylakoid membrane protein (psbA) (Chenopodium album) (UniProt Q31945); assay: Selectivity ratio of I50 for photosynthetic electron transport protein complex in atrazine-resistant Chenopodium album thylakoid to I50 for photosynthetic electron transport protein complex in wild type Chenopodium album thylakoid
[3] = biological target: Photosystem II protein D1 (Spinacia oleracea, UniProt P69560); assay: Inhibition of photosynthetic electron transport protein complex in Spinacia oleracea (spinach) leaf thylakoid

Sequence of Chloroplast thylakoid membrane protein (psbA) (Chenopodium album) (Q31945 1-69): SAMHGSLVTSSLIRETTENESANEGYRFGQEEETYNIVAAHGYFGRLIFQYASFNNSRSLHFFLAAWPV

Structure (SMILES)	pI50 [1]	Selectivity ratio [2]	pI50 [3]
Cc1nc(CF)nc(NCc2ccccc2)n1	4.98	–	–
CCOC(=O)c1nc(C)nc(NCc2ccccc2)n1	–	0.98	4.88
CCNc1nc(Cl)nc(NC(C)C)n1 [ATRAZINE]	6.73	324	–
Cc1nc(NCc2ccccc2)nc(C(F)(F)F)n1	6.85	2.6	–
C#CCNc1nc(C)nc(C(=O)OCC)n1	–	1.23	–
CCOC(=O)c1nc(C)nc(NC(C)CC)n1 (centres undefined)	–	–	4.37
Cc1nc(NCc2ccccc2)nc(C(F)F)n1	5.63	2.5	–
CCOC(=O)c1nc(C)nc(NC(C)C)n1	–	2.45	6.11
COC(=O)c1nc(C)nc(NCc2ccccc2)n1	–	–	4
